This note sets out measurements from patent publication US4771071A, “Antihypercholesterolemic compounds” (Merck & Co., Inc., priority 1986, dated 1988).

The subject of one data set is HMG-CoA reductase. The data set can be described thus: HMG-CoA reductase inhibition assay (in vitro). The format is biochemical. The conditions noted are these: IC50 compared with compactin determined simultaneously, compactin assigned 100; tested as sodium salt of dihydroxy acid form; solubilized rat liver microsomal enzyme. The protocol: The intrinsic HMG-CoA reductase inhibition activityof the claimed compounds is measured in the in vitro protocol published in J. Med. Chem., 28, p. 347-358 (1985) and described below:
Male Holtzman Sprague-Dawley rats (225-250 g) were kept on reversed lighting and fed Purina rat chow containing 3% cholestyramine for 7 days preceding their sacrifice by CO2 asphyxiation. Livers were removed 6 hours into the dark cycle and used immediately to prepare microsomes. […]
Test compounds or compactin (after first being converted to the sodium salt of their dihydroxy acid form in situ by addition of 1N NaOH (1 equivalent) were added to the assay system in 10-μL volumes at multiconcentration levels. After a 40-minutes incubation at 37° C. with shaking and exposure to air, the reaction was stopped by the addition of 0.4 mL of 8N HCl. After an additional 30-minute incubation at 37° C. to ensure the complete lactonization of mevalonic acid to mevalonolactone, 0.2 ml of the mixture was added to an 0.5×5.0 cm column containing 100-200 mesh BioRex 5, chloride form (Bio-Rad), wetted with distilled water, as described by Alberts et al., [J. Proc. Natl. Acad. Sci. U.S.A., 1980, 77, 3957]. […] Five milliliters of Aquasol-2 (New England Nuclear) was added to each vial, and radioactivity was measured in a Packard Tri Carb Prias scintillation counter. […]
A general note: Liver microsomes are a subcellular fraction often used to study metabolism.

A short description of data set [1]: Stability of free hydroxy acid on standing. The format is physicochemical. The protocol:
The sodium salt of the compound II from Example 11 is redissolved in 2 ml of ethanol-water (1:1) and added to 10 ml of 1N hydrochloric acid from which the hydroxy acid is extracted with ethyl acetate. The latter solvent is washed once with water, dried, and removed in vacuo with a bath temperature not exceeding 30° C.

As to “6(R)-[2-[8(S)-(2,2-dimethyl-3-methoxy-3-oxopropionyloxy)-2(S),6(R)-dimethyl-1,2,6,7,8,8a(R)-hexahydronaphthyl-1(S)]ethyl]-4(R)-hydroxy-3,4,5,6-tetrahydro-2H-pyran-2-one [Example 1]”, the “Relative Potency” value in the data set with HMG-CoA reductase was found to be 87.

For the compound “6(R)-[2-[8(S)-(2,2-Dimethyl-3-methoxycarbonylpropionyloxy)-2(S),6(R)-dimethyl-1,2,6,7,8,8a-(R)-hexahydronaphthyl-1(S)]ethyl]-4(R)-hydroxy-3,4,5,6-tetrahydro-2H-pyran-2-one [Example 2]”, the “Relative Potency” value in the data set with HMG-CoA reductase stood at 59.

As to `COC(=O)C(C)(C)C(=O)O[C@H]1C[C@@H](C)C=C2C=C[C@H](C)[C@H](CC[C@@H](O)C[C@@H](O)CC(=O)O)[C@H]21` [Example 13], the “stability of hydroxy acid (reversion to lactone)” value in data set [1] was “slowly reverts to the lactone on standing”.
